Active and inactive are the calls of the source. The rule behind the calls is not given here.
System: CCRIS mutagenicity, Ames/micronucleus/aberration tests
Assay: CCRIS mutagenicity studies

Measured: mutagenic call

Cl
inactive: Test System: AMES SALMONELLA TYPHIMURIUM, Strain/Indicator: TA97, Metabolic Activation: NONE, Method: PREINCUBATION inactive; negative | Test System: AMES SALMONELLA TYPHIMURIUM, Strain/Indicator: TA97, Metabolic Activation: NONE, Method: STANDARD PLATE inactive; negative | Test System: AMES SALMONELLA TYPHIMURIUM, Strain/Indicator: TA97, Metabolic Activation: RAT, LIVER, S-9, AROCLOR 1254, Method: PREINCUBATION inactive; negative | Test System: AMES SALMONELLA TYPHIMURIUM, Strain/Indicator: TA97, Metabolic Activation: RAT, LIVER, S-9, PHENOBARBITAL, Method: STANDARD PLATE inactive; negative | Test System: AMES SALMONELLA TYPHIMURIUM, Strain/Indicator: TA98, Metabolic Activation: NONE, Method: PREINCUBATION inactive; negative | Test System: AMES SALMONELLA TYPHIMURIUM, Strain/Indicator: TA98, Metabolic Activation: NONE, Method: STANDARD PLATE inactive; negative | Test System: AMES SALMONELLA TYPHIMURIUM, Strain/Indicator: TA98, Metabolic Activation: RAT, LIVER, S-9, KC 500, Method: PREINCUBATION inactive; negative | Test System: AMES SALMONELLA TYPHIMURIUM, Strain/Indicator: TA98, Metabolic Activation: RAT, LIVER, S-9, PHENOBARBITAL, Method: STANDARD PLATE inactive; negative | Test System: AMES SALMONELLA TYPHIMURIUM, Strain/Indicator: TA100, Metabolic Activation: NONE, Method: PREINCUBATION inactive; negative | Test System: AMES SALMONELLA TYPHIMURIUM, Strain/Indicator: TA100, Metabolic Activation: NONE, Method: STANDARD PLATE inactive; negative | Test System: AMES SALMONELLA TYPHIMURIUM, Strain/Indicator: TA100, Metabolic Activation: RAT, LIVER, S-9, KC 500, Method: PREINCUBATION inactive; negative | Test System: AMES SALMONELLA TYPHIMURIUM, Strain/Indicator: TA100, Metabolic Activation: RAT, LIVER, S-9, PHENOBARBITAL, Method: STANDARD PLATE inactive; negative | Test System: AMES SALMONELLA TYPHIMURIUM, Strain/Indicator: TA102, Metabolic Activation: NONE, Method: PREINCUBATION inactive; negative | Test System: AMES SALMONELLA TYPHIMURIUM, Strain/Indicator: TA102, Metabolic Activation: RAT, LIVER, S-9, AROCLOR 1254, Method: PREINCUBATION inactive; negative | Test System: AMES SALMONELLA TYPHIMURIUM, Strain/Indicator: TA1535, Metabolic Activation: NONE, Method: PREINCUBATION inactive; negative | Test System: AMES SALMONELLA TYPHIMURIUM, Strain/Indicator: TA1535, Metabolic Activation: NONE, Method: STANDARD PLATE inactive; negative | Test System: AMES SALMONELLA TYPHIMURIUM, Strain/Indicator: TA1535, Metabolic Activation: RAT, LIVER, S-9, KC 500, Method: PREINCUBATION inactive; negative | Test System: AMES SALMONELLA TYPHIMURIUM, Strain/Indicator: TA1535, Metabolic Activation: RAT, LIVER, S-9, PHENOBARBITAL, Method: STANDARD PLATE inactive; negative | Test System: AMES SALMONELLA TYPHIMURIUM, Strain/Indicator: TA1537, Metabolic Activation: NONE, Method: PREINCUBATION inactive; negative | Test System: AMES SALMONELLA TYPHIMURIUM, Strain/Indicator: TA1537, Metabolic Activation: NONE, Method: STANDARD PLATE inactive; negative | Test System: AMES SALMONELLA TYPHIMURIUM, Strain/Indicator: TA1537, Metabolic Activation: RAT, LIVER, S-9, KC 500, Method: PREINCUBATION inactive; negative | Test System: AMES SALMONELLA TYPHIMURIUM, Strain/Indicator: TA1537, Metabolic Activation: RAT, LIVER, S-9, PHENOBARBITAL, Method: STANDARD PLATE inactive; negative | Test System: AMES SALMONELLA TYPHIMURIUM, Strain/Indicator: TA1538, Metabolic Activation: NONE, Method: PREINCUBATION inactive; negative | Test System: AMES SALMONELLA TYPHIMURIUM, Strain/Indicator: TA1538, Metabolic Activation: NONE, Method: STANDARD PLATE inactive; negative | Test System: AMES SALMONELLA TYPHIMURIUM, Strain/Indicator: TA1538, Metabolic Activation: RAT, LIVER, S-9, KC 500, Method: PREINCUBATION inactive; negative | Test System: AMES SALMONELLA TYPHIMURIUM, Strain/Indicator: TA1538, Metabolic Activation: RAT, LIVER, S-9, PHENOBARBITAL, Method: STANDARD PLATE inactive; negative | Test System: E. COLI, Strain/Indicator: WP2 UVRA, Metabolic Activation: NONE, Method: PREINCUBATION inactive; negative | Test System: E. COLI, Strain/Indicator: WP2 UVRA, Metabolic Activation: NONE, Method: SPOT TEST inactive; negative | Test System: E. COLI, Strain/Indicator: WP2 UVRA, Metabolic Activation: RAT, LIVER, S-9, KC 500, Method: PREINCUBATION inactive; negative | Test System: MOUSE LYMPHOMA, Strain/Indicator: L5178Y (TK+/TK-), Metabolic Activation: NONE, Method: SUSPENSION/PLATE inactive; negative
active: End Point: IN VITRO CHROMOSOMAL ABERRATIONS, Test System: CHO-WBL CELLS, Metabolic Activation: NONE active; positive (structural changes); osmolality of solution decisive factor | Test System: MOUSE LYMPHOMA, Strain/Indicator: L5178Y (TK+/TK-), Metabolic Activation: RAT, LIVER, S-9, AROCLOR 1254, Method: SUSPENSION/PLATE active; positive | Test System: MOUSE LYMPHOMA, Strain/Indicator: L5178Y (TK+/TK-), Metabolic Activation: RAT, LIVER, S-9, Method: SUSPENSION/PLATE active; positive
